Drawing on patent US20250270209A1 (INTERLINE THERAPEUTICS, INC., priority 2022, published 2025), this text covers IC50 for 15 compounds.

SMILES strings stand for the structures.

Assay [1] concerns the target LRRK2 wild type enzyme (Homo sapiens, UniProt Q5S007). As to the kind of experiment: Biochemical Assay: LRRK2 TR-FRET (LanthaScreen) kinase assay with LRRKtide substrate. The conditions noted are these: LRRK2 Inhibition, Table 8. The procedure: 10 mM compound solution was prepared in DMSO. An 11-point, 3-fold dilution was performed, with highest concentration at 10 μM. A 10 mM compound DMSO solution was added to Labcyte LDV plate and the compound concentration of source plate was 10 mM. The 1st compound concentration of Inter plate(Labcyte 384 well PP plate) was 4.938×10^−1 mM which was prepared by transferring 1.5 μL of 10 mM compound from source plate to 28.9 μL DMSO. The 2nd compound concentration of Inter plate was 1.829×10^−2 mM which was prepared by transferring 60 nL of 10 mM compound from source plate to 32.7 μL DMSO. The 3rd compound concentration of Inter plate was 6.774×10^−4 mM which was prepared by transferring 2.5 nL of 10 mM compound from source plate to 36.9 μL DMSO. 100 nL of reference compound was dispensed in column 1 for low control wells and 100 nL of DMSO in column 24 for high control wells. Compounds were dispensed to column 2 to 23 of assay plate and backfilled with DMSO to a total volume of 100 nL.
A 2X LRRK2 enzyme solution (final concentration 3 nM) was prepared in assay buffer (Tris-HCl pH8.0:50 mM, MgCl2: 5 mM, EDTA: 1 mM, Brij-35:0.01%, 2 mM DTT). A 2× substrate solution was prepared: LRRK2 tide substrate (final concentration 400 nM) and ATP (final concentration 25 μM) in assay buffer. 5 μL 2× LRRK2 enzyme solution was dispensed to each well in assay plate by Multidrop. Assay plate was spun at 1,000 rpm for 1 min and incubated for 15 min at 23° C. 5 μL 2× ATP/LRRKtide solution was dispensed to each well in assay plate by Multidrop. Assay plate was spun at 1,000 rpm for 1 min and incubated for 120 min at 23° C.
(§1) A 2× detection solution was prepared: Tb-pERM (pLRRKtide) antibody (final concentration 0.25 nM) and EDTA (final concentration 10 mM) in TR-FRET dilution buffer. 10 μL 2× detection solution was dispensed to each well in assay plate to stop kinase reaction by Multidrop. Assay plate was spun at 1,000 rpm for 1 min and incubate for 30 min at 23° C. Assay plate was then read on Envision configured for LanthaScreen® TR-FRET. pS935 LRRK2 Cell Assay
In general terms: TR-FRET usually uses a lanthanide donor and a delayed reading to cut background.

Assay [2] has as its target T1, wild type LRRK2 overexpressed in recombinant HEK-293T cells (Homo sapiens, UniProt Q5S007).
T1 construct: host or cells: HEK293T (transient transfection with pCMV-LRRK2 WT plasmid)
As to the kind of experiment: pS935 LRRK2 Cell Assay (HTRF, phospho-LRRK2 Ser935). The assay is classed as cell-based. Conditions: LRRK2 Inhibition, Table 8, 2 hours compound incubation. As for the experimental part:
as §1
The following protocol describes an in-vitro method for measuring phosphorylation at Ser935 on wild type LRRK2 overexpressed in recombinant HEK-293T cells. The method is based on HTRF technology, which combines Fluorescence Resonance Energy Transfer (FRET) with Time-Resolved measurement (TR). Phospho-LRRK2 (Ser935) is detected in a sandwich assay format using two different specific antibodies, one labelled with Eu3+-Cryptate (donor) and the second with d2(acceptor).When the fluorophores are in close proximity, excitation of the donor with a light source (flash lamp) stimulates FRET to the acceptor, which in turn fluoresces at a specific wavelength (665 nm). The fluorescence emission at 615 nm from the donor is also measured to allow ratiometric reduction of data. The specific signal is proportional to phospho-LRRK2 (Ser935).
Plasmid transient transfection: DMEM medium, FBS, DPBS, Trans-IT, OPTI-MEM reagents were allowed to warm to room temperature. HEK293T cells were cultured in DMEM +10% FBS complete medium in T150 flasks till around 80% confluency before transfection. Then cells were washed with 10 mL PBS and detached with 3 mL 0.25% typinsin. 30×10E6 HEK293T cells were seeded in DMEM +10% FBS complete medium to a 15 cm dish.
DNA, TransIT-LT1, OPTI-MEM complex were prepared: […] OPTI-MEM was added to a 15 mL cone tube, then […] plasmid was added to OPTI-MEM and mixed, followed by addition of 60 μL TransIT-LT1 to the plasmid OPTI-MEM mixture and mixing. The resulting mixture was incubated for 15 minutes.
The above plasmid, DNA and OPTI-MEM mixture was added dropwise to the 15 cm dish, ensuring the drops were evenly distributed. The culture dish was gently rocked back and forth and from left to right to evenly distribute the complex. The tranfected dish was incubated for 24 hours at 37° C., and 5% CO2.
Transfected HEK293T was collected in the 15 cm dish. Media was aspirated from tissue culture dish, and washed by dispensing 10 mL 1× DPBS into 15 cm dish. 1× DPBS was aspirated and 3 mL trypsin was dispensed to 15 cm dish. The dish was incubated with trypsin at room temperature for 3 min until the cells were detached. 10 mL of DMEM +10% FBS medium were added to 15 cm dish and triturated to ensure homogenous cell suspensions.
Homogenous cell suspensions were transferred to a 50 mL tube, and centrifuged for 5 minutes at 1,000 rmp/min. The supernatant was aspirated and resuspended with 20 mL complete medium. 1 mL of cell suspension was transferred for cell counting. The cell suspension was diluted to 2× 10E5 cells/ml. 50 μL cell suspensions were added to a 384-well plate. The plate was quick spun at 800 rpm for 1 minute, then incubate overnight at 37° C., 5% CO2.
Compound dispensing: compound was diluted (10 mM DMSO stock solution) and added to assay plate (top concentration: 10 μM, 3 fold serial dilution, 9 doses) with duplicates by Tecan liquid handler. The DMSO concentration of each well was normalized to 0.2%. Plates were quick spun at 1,000 rpm for 1 minute. Plates were incubated at 37° C., 5% CO2 for 2 hours.
1× lysis buffer solution supplemented with blocking reagent was prepared (e.g. 1 mL lysis buffer 4X+3 mL water+40 μL stock blocking reagent 100X). Antibodies working solution was prepared by diluting 40-fold d2 and Cryptate antibodies with detection buffer(e.g. 1520 μL detection buffer+40 μL d2-antibody stock solution+[…] Cryptate-antibody stock solution).
After 2 hours incubation, cell plates were taken out from the incubator. […]

T1 sequence (Q5S007 whole entry): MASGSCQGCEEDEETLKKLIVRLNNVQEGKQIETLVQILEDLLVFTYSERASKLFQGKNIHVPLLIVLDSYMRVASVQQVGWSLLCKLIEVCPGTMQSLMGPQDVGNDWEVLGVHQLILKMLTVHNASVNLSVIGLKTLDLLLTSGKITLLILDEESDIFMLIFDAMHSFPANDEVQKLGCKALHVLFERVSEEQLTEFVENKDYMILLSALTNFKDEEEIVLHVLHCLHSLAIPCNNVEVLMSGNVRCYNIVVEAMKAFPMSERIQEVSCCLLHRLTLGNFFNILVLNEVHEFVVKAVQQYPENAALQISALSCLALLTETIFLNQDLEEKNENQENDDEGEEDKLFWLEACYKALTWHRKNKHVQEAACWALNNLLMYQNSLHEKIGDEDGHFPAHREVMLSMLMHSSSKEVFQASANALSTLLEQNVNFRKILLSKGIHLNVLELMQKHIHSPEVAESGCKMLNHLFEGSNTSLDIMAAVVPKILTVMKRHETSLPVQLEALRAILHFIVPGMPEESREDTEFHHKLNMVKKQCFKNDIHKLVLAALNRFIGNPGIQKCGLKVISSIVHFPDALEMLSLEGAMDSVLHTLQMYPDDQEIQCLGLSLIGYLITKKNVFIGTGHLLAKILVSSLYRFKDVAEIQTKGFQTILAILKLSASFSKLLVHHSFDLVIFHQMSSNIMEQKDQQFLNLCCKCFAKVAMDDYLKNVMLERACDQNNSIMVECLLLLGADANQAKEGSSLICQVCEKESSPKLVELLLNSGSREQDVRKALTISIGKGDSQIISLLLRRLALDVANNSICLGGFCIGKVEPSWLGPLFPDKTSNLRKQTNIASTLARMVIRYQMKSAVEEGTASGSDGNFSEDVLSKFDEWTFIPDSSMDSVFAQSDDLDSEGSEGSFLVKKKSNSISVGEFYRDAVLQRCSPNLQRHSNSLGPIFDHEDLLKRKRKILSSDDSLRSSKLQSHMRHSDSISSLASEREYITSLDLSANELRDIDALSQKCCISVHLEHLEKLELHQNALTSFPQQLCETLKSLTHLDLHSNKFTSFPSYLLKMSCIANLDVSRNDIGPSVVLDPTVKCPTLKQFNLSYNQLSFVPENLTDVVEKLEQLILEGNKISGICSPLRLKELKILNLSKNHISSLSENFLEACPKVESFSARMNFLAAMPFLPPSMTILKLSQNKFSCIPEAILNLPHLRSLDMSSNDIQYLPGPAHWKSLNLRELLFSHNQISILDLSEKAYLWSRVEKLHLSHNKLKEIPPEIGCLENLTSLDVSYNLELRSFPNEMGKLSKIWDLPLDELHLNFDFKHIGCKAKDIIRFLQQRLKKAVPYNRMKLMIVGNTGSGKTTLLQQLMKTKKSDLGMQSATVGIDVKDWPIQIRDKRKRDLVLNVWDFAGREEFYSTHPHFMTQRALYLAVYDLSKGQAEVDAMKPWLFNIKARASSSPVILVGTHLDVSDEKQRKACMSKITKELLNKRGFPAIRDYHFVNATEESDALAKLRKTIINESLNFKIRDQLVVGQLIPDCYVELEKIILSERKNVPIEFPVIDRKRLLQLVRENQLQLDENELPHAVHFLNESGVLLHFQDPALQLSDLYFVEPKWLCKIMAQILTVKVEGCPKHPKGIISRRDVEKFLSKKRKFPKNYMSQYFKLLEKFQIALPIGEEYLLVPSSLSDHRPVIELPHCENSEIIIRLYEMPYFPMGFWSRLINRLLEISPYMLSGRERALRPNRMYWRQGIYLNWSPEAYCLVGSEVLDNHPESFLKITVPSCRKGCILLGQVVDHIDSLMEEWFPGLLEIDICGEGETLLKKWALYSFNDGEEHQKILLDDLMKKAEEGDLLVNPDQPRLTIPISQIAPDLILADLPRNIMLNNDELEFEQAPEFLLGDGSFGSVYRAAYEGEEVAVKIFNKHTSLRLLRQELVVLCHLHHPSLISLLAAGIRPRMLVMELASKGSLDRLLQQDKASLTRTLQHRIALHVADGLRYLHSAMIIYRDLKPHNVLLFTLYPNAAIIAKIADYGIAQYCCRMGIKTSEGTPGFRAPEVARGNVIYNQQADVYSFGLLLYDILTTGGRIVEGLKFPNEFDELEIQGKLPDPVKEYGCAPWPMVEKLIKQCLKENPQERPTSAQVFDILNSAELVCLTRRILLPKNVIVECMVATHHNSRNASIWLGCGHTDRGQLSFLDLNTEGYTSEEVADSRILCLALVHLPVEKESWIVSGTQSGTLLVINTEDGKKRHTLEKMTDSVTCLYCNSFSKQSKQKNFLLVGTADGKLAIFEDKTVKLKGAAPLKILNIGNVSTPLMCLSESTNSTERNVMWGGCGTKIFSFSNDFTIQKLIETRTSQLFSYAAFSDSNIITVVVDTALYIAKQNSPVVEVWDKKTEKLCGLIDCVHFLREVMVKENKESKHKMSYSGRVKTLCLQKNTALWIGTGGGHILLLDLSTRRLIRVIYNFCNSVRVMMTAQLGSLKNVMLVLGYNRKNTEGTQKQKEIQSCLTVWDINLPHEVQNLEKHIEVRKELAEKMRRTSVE
Sequence of LRRK2 wild type enzyme (Q5S007 whole entry): as above

For orientation: IC50 means the point on the concentration scale where inhibition reaches its midpoint. For `C[C@@H]1C[C@H](n2c(CC(=O)Nc3ccccn3)nc3cnc4ccc(C#N)cc4c32)CCO1` [Compound 155, 2-{8-cyano-1-[(2R,4R)-2-methyloxan-4-yl]-1H-imidazo[4,5-c]quinolin-2-yl}-N-(pyridin-2-yl)acetamide], the half-maximal inhibitory concentration (IC50) was found to be 0.441 nM in assay [1] and 2.87 nM in assay [2].

On to `C[C@@H]1C[C@H](n2c(CC(=O)NC3CC34CC4)nc3cnc4ccc(C#N)cc4c32)CCO1` (stereo partly drawn) [Compound 249, N-1-spiro[2.2]pentyl{3-[(2R,4R)-2-methyltetrahydro-2H-pyran-4-yl]-12-cyano-3,5,8-triazatricyclo[7.4.0.0^2,6]trideca-1(9),2(6),4,7,10,12-hexaen-4-yl}acetamide], for which the IC50 in assay [1] worked out at 0.691 nM; in assay [2], 17.4 nM.

On to `Cc1noc(C)c1NC(=O)Cc1nc2cnc3ccc(C#N)cc3c2n1[C@@H]1CCO[C@H](C)C1` [Compound 201, N-(3,5-dimethyl-4-isoxazolyl){3-[(2R,4R)-2-methyltetrahydro-2H-pyran-4-yl]-12-cyano-3,5,8-triazatricyclo[7.4.0.0^2,6]trideca-1,4,6,8,10,12-hexaen-4-yl}acetamide], for which the values for the 50% inhibitory concentration (IC50) in assay [1] and in assay [2] were 0.377 nM and 11.6 nM, respectively.

For the compound `COc1ccc2ncc3nc(CC(=O)NC4CC4)n([C@@H]4CCO[C@H](C)C4)c3c2c1` [Compound 160, N-cyclopropyl-2-{8-methoxy-1-[(2R,4R)-2-methyloxan-4-yl]-1H-imidazo[4,5-c]quinolin-2-yl}acetamide], the figures for the IC50 in assay [1] and in assay [2] were 2.82 nM and 332 nM, respectively.

In the case of `C[C@@H]1C[C@H](n2c(CNc3ncco3)nc3cnc4ccc(C#N)cc4c32)CCO1` [Compound 11, 1-[(2R,4R)-2-methyloxan-4-yl]-2-{[(1,3-oxazol-2-yl)amino]methyl}-1H-imidazo[4,5-c]quinoline-8-carbonitrile], the figures for the half-maximal inhibitory concentration (IC50) in assay [1] and in assay [2] were 4.23 nM and 609 nM, respectively.

Turning to `Cc1oncc1NC(=O)Cc1nc2cnc3ccc(C#N)cc3c2n1[C@@H]1CCO[C@H](C)C1` [Compound 209, N-(5-methyl-4-isoxazolyl){3-[(2R,4R)-2-methyltetrahydro-2H-pyran-4-yl]-12-cyano-3,5,8-triazatricyclo[7.4.0.0^2,6]trideca-1,4,6,8,10,12-hexaen-4-yl}acetamide], the figures for the IC50 in assay [1] and in assay [2] were 0.427 nM and 13.2 nM, respectively.

Turning to `C[C@@H]1C[C@H](n2c(CC(=O)N[C@@H]3CCCc4cccnc43)nc3cnc4ccc(C#N)cc4c32)CCO1` [Compound 357, N-[(R)-5,6,7,8-tetrahydro-8-quinolyl]{3-[(2R,4R)-2-methyltetrahydro-2H-pyran-4-yl]-12-cyano-3,5,8-triazatricyclo[7.4.0.0^2,6]trideca-1(9),2(6),4,7,10,12-hexaen-4-yl}acetamide], the IC50 in assay [1] turned out to be 0.628 nM; in assay [2], 10.7 nM.

With `Cc1nc(CNC(=O)Cc2nc3cnc4ccc(C#N)cc4c3n2[C@@H]2CCO[C@H](C)C2)no1` [Compound 259, N-[(5-methyl-1,2,4-oxadiazol-3-yl)methyl]{3-[(2R,4R)-2-methyltetrahydro-2H-pyran-4-yl]-12-cyano-3,5,8-triazatricyclo[7.4.0.0^2,6]trideca-1(9),2(6),4,7,10,12-hexaen-4-yl}acetamide], the half-inhibitory concentration (IC50) in assay [1] is 1.34 nM; in assay [2], 132 nM.

Consider `C[C@@H]1C[C@H](n2c(CC(=O)NC3(CF)CC3)nc3cnc4ccc(C#N)cc4c32)CCO1` [Compound 294, N-1-(fluoromethyl)cyclopropyl{3-[(2R,4R)-2-methyltetrahydro-2H-pyran-4-yl]-12-cyano-3,5,8-triazatricyclo[7.4.0.0^2,6]trideca-1,4,6,8,10,12-hexaen-4-yl}acetamide], for which the IC50 in assay [1] worked out at 1.48 nM; in assay [2] it was 132 nM.

`C[C@@H]1C[C@H](n2c(CC(=O)Nc3ccccc3)nc3cnc4ccc(C#N)cc4c32)CCO1` [Compound 330, N-phenyl{3-[(2R,4R)-2-methyltetrahydro-2H-pyran-4-yl]-12-cyano-3,5,8-triazatricyclo[7.4.0.0^2,6]trideca-1(9),2(6),4,7,10,12-hexaen-4-yl}acetamide]: the 50% inhibitory concentration (IC50) came out at 0.507 nM in assay [1] and 4.68 nM in assay [2].

Consider `COc1ncc(NC(=O)Cc2nc3cnc4ccc(C#N)cc4c3n2[C@@H]2CCO[C@H](C)C2)cn1` [Compound 291, N-(2-methoxy-5-pyrimidinyl){3-[(2R,4R)-2-methyltetrahydro-2H-pyran-4-yl]-12-cyano-3,5,8-triazatricyclo[7.4.0.0^2,6]trideca-1,4,6,8,10,12-hexaen-4-yl}acetamide], for which the IC50 in assay [1] came out at 0.527 nM; in assay [2], 18 nM.

Regarding `C[C@@H]1C[C@H](n2c(CC(=O)Nc3nccnc3Cl)nc3cnc4ccc(C#N)cc4c32)CCO1` [Compound 308, N-(3-chloro-2-pyrazinyl){3-[(2R,4R)-2-methyltetrahydro-2H-pyran-4-yl]-12-cyano-3,5,8-triazatricyclo[7.4.0.0^2,6]trideca-1(9),2(6),4,7,10,12-hexaen-4-yl}acetamide], the IC50 in assay [1] is 1.25 nM; in assay [2], 18.6 nM.

Consider `CC(=O)NCc1nc2cnc3ccc(C#N)cc3c2n1[C@@H]1CCO[C@H](C)C1` [Compound 23, N-({8-cyano-1-[(2R,4R)-2-methyloxan-4-yl]-1H-imidazo[4,5-c]quinolin-2-yl}methyl)acetamide], for which the concentration for half-maximal inhibition (IC50) in assay [1] was 4.74 nM; in assay [2], 659 nM.

`C[C@@H]1C[C@H](n2c(CNC(=O)c3cnn(C)c3)nc3cnc4ccc(C#N)cc4c32)CCO1` [Compound 20, N-({8-cyano-1-[(2R,4R)-2-methyloxan-4-yl]-1H-imidazo[4,5-c]quinolin-2-yl}methyl)-1-methyl-1H-pyrazole-4-carboxamide]: the results for the IC50 in assay [1] and in assay [2] were 1.83 nM and 224 nM, respectively.

Turning to `C[C@@H]1C[C@H](n2c(C3CC(=O)N(CC4CC4)C3)nc3cnc4ccc(C#N)cc4c32)CCO1` (mixture of isomers) [Compound 69, 2-[(3RS)-1-(cyclopropylmethyl)-5-oxopyrrolidin-3-yl]-1-[(2R,4R)-2-methyloxan-4-yl]-1H-imidazo[4,5-c]quinoline-8-carbonitrile], the figures for the concentration for half-maximal inhibition (IC50) in assay [1] and in assay [2] were 2.28 nM and 182 nM, respectively.
